Test system: L1210
Test: Cytotoxicity against mouse L1210 cells after 48 hrs by […] assay
Type: functional, cell-based
Settings: L1210, 48 h

Compound	IC50
COc1cc2c(c3c1c(=O)c1ccccc1n3C)C=CC(C)(C)O2 [ACRONINE]	10.4 µM
COc1cc2c(c3c1c(=O)c1ccccc1n3C)[C@H](OC(C)=O)[C@H](OC(C)=O)C(C)(C)O2	3.7 µM
COc1cc2c(c3c1c(=O)c1ccccc1n3C)[C@@H](OC(C)=O)[C@@H](OC(C)=O)C(C)(C)O2	3.1 µM

— ChEMBL document CHEMBL1141814, “Chiral dihydroxylation of acronycine: absolute configuration of natural cis-1,2-dihydroxy-1,2-dihydroacronycine and cytotoxicity of (1R,2R)- and (1S,2S)-1,2-diacetoxy-1,2-dihydroacronycine” (J Nat Prod, 1999)
